Assay results: publication PMC6009888, “Design, synthesis, and pharmacological evaluation of 2-amino-5-nitrothiazole derived semicarbazones as dual inhibitors of monoamine oxidase and cholinesterase: effect of the size of aryl binding site” (Journal of Enzyme Inhibition and Medicinal Chemistry, 2017)
“And” between values parts separate entries of the source, which are not always exact repeats. Identical values can stand only once.

Key:
rat brain AChE = target: T1, rat brain AChE (Rattus norvegicus, UniProt P37136); assay: biochemical; assay type: biochemical; conditions: for IC50: rat brain AChE, ACTI substrate, mean ± SEM, triplicate, read-out: AChE In vitro IC50 (µM) ± SEM; for AChE: fold less active relative to compound 19: diaryl analogues
T1 construct: the resulting clear supernatants obtained were used as enzyme sources; from tissue; host or cells: rat brain cortex homogenate, 10,000 g supernatant
Description: Rat brain was used as a source of AChE enzyme. Rats were separately decapitated, the brain cortices quickly removed, weighed and homogenised in cold 10 mM Tris-HCl buffer, pH 7.2, containing 160 mM sucrose. The homogenates were centrifuged at 10,000 g for 10 min at 4 °C, and the resulting clear supernatants obtained were used as enzyme sources that were divided into aliquots and stored at −20 °C.
(§1) About 30 µl of enzyme sample (AChE) was added to 60 µl of 20 mM sodium phosphate buffer (pH 7.4) and were incubated in the presence of 30 µl of 10 mM DTNB solution with different concentrations of the test compounds. The enzyme reaction was initiated by the addition of 30 µl of 0.8 mM ACTI. The mixtures were incubated for 15 min at 25 °C. […] Control experiments were carried out without inhibitor, and blanks were run without AChE enzyme. All the assays were performed in triplicate. IC50 values were determined using the GraphPad Prism 5.0 (San Diego, CA) and the results were expressed as mean ± SEM.
(§2) 0, 15, 30 and 60 min at 25 °C in sodium phosphate buffer (20 mM, pH 7.4) and DTNB solution (10 mM). […] The reaction was further incubated at 25 °C for a further 15 min and the residual enzyme activities were measured and the bar graphs were constructed. All measurements were carried out in triplicate and are expressed as mean ± SEM.

[1] = In vitro DPPH radical scavenging assay; conditions: test sample 100 µg/ml, 100 µM methanolic DPPH, 30 min, 517 nm
Description: Antioxidant activity of the synthesised compounds (10 mg/ml) was evaluated using the radical scavenging capability against the stable free radical, 2,2′-diphenyl-1-picryl hydrazyl (DPPH·). The DPPH· scavenging capability was determined using UV based spectrophotometric assay. About 200 µl of the test sample solution (100 µg/ml) was added to 4 ml of 100 µM methanolic DPPH. […] Ascorbic acid (100 µg/ml) was used as reference. The percentage inhibition of DPPH activity was estimated using the formula: Percent (%) inhibition of DPPH activity = Acontrol-Asample/Acontrol×100 where Acontrol is the absorbance of DPPH· in methanol without an antioxidant and Asample is the absorbance of DPPH· in the presence of an antioxidant.

MAO-A = target: T2, MAO-A (Rattus norvegicus, UniProt P21396); assay: In vitro MAO-A inhibition assay (rat brain mitochondria, serotonin substrate); assay type: biochemical; conditions: rat brain mitochondria, serotonin substrate, mean ± SEM, triplicate; read-out: MAO-A In vitro IC50 (µM) ± SEM
T2 construct: employing crude rat brain mitochondrial suspension; from tissue; host or cells: brain mitochondria of adult Wistar rats
T2 sequence (P21396 1-526): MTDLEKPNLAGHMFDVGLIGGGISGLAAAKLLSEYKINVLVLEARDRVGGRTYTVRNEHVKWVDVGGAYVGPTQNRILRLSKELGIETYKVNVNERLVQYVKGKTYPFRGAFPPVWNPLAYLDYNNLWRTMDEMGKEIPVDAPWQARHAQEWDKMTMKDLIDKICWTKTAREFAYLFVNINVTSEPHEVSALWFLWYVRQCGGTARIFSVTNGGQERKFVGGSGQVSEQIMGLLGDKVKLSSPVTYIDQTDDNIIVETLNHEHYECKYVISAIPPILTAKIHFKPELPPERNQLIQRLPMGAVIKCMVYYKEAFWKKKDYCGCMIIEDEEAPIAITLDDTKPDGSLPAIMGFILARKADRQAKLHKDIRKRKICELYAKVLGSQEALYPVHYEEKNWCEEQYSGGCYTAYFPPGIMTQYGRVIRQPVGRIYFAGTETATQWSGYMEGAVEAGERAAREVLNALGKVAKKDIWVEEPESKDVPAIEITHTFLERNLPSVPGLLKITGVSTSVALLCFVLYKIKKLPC
Description: (§3) Rat brain mitochondria were used as a source of MAO isoforms. All operations were carried out at 4 °C[50]. Male and female adult Wistar rats weighing 200–220 g were decapitated. All brains were rapidly removed and homogenised with a Potter–Elvehjem homogeniser in cold 0.32 M sucrose and 50 mM Tris-HCl, pH 8.2 (10:1, v/w). The homogenate was centrifuged twice at 1000 g for 5 min at 4 °C. The resulting supernatant was centrifuged at 20,000 g for 20 min. The mitochondrial pellet obtained was suspended in 100 mM sodium phosphate buffer, pH 7.4 (4:1, v/w), fractionated in plastic vials to 500 µl samples and stored at −80 °C. Before use, mitochondria were diluted with 100 mM sodium phosphate buffer to give a working solution of 0.80 mg of protein per millilitre.
(§4) The experiments were carried out under all the suitable laboratory conditions. […] An aliquot was made to contain mixture of 55 µl mitochondrial suspension (0.80 mg of protein/ml), 90 µl 50 mM Tris-HCl buffer, pH 8.2 and 30 µl solubilising solution (control or inhibitor solution at five different concentrations). The reaction was initiated by adding 25 µl of serotonin (4 mM, substrate for MAO-A) and 25 µl benzylamine (0.1 M, substrate for MAO-B) for the determination of MAO-A and MAO-B activity, respectively. The mixture was incubated at 37 °C for 30 min and the reaction was stopped by the addition of 50 µl of 1 N HCl. The absorbance associated with the production of 5-hydroxyindolacetic acid was measured at 280 nm for the estimation of MAO-A while for MAO-B estimation, the absorbance was measured at 250 nm due to the formation of benzaldehyde. All the assays were performed in triplicate. Control experiments were carried out without inhibitor and blanks were run without mitochondrial suspension.
(§5) Data are expressed as mean ± standard error mean (SEM) of experiments performed in triplicate.
as §2, with “37” for “25”, “Tris-HCl” for “sodium phosphate”, “(50” for “(20”, “8.2).” for “7.4) and DTNB solution (10 mM).”, “reactions were” for “reaction was”

MAO-B = target: T3, MAO-B (Rattus norvegicus, UniProt P19643); assay: biochemical; conditions: for SI (selectivity index for MAO-B): ratio of experimental IC50(MAO-A)/IC50(MAO-B)
T3 construct: employing crude rat brain mitochondrial suspension; from tissue; host or cells: brain mitochondria of adult Wistar rats
T3 sequence (P19643 1-520): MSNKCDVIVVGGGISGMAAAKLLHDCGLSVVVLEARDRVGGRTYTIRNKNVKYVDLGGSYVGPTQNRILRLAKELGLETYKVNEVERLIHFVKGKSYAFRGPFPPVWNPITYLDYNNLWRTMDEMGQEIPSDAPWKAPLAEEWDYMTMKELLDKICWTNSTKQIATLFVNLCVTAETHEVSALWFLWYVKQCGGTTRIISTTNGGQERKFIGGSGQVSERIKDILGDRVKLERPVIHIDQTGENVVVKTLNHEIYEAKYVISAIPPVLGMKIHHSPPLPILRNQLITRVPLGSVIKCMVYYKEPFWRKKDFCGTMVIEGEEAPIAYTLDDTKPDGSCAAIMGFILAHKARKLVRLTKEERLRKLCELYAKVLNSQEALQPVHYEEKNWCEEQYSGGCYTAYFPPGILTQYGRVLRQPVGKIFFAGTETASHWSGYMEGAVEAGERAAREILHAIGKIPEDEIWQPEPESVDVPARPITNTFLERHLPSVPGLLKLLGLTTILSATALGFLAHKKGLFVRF
Description: as §3, §4, §5
as §2, with “37” for “25”, “Tris-HCl” for “sodium phosphate”, “(50” for “(20”, “8.2).” for “7.4) and DTNB solution (10 mM).”, “reactions were” for “reaction was”

mice = assay: Neurotoxicity screening (rotarod test); assay type: in vivo; conditions: 30 mg/kg i.p.
Description: The neurotoxicity screening was undertaken according to the method followed by the National Institute of Health, using their reported procedures[55]^,[56]. Male albino mice (CF-1 strain or Swiss, 18–25 g) were used as experimental animals. The animals were housed in metabolic cages, and allowed free access to food and water. The test compounds were suspended in 0.5% methylcellulose/water mixture or in polyethylene glycol (PEG 200).
Minimal motor impairment was measured in mice by the rotarod test. The mice were trained to stay on an accelerating rotarod that rotates at six revolutions per minute. The rod diameter was 3.2 cm. Trained animals were given i.p. injection of the selected inhibitors at a dose of 30 mg/kg. Neurotoxicity was indicated by the inability of the animal to maintain equilibrium on the rod for at least 1 min in each of the three trials.

physchem = conditions: octanol/water
equine serum BuChE = target: T4, equine serum BuChE (Equus caballus, UniProt P81908); assay: In vitro BuChE inhibition assay (Ellman's method, equine serum BuChE); assay type: biochemical; conditions: for IC50: equine serum BuChE, BuTI substrate, mean ± SEM, read-out: BuChE In vitro IC50 (µM) ± SEM
T4 construct: equine serum BuChE was used as enzyme; purchased Sigma-Aldrich; host or cells: equine serum
Description: as §1
The BuChE activity was assayed as per the procedure followed for AChE activity except that equine serum BuChE was used as enzyme and butyrylthiocholine iodide (BuTI) was used as substrate.
as §2

T1 sequence (P37136 32-614): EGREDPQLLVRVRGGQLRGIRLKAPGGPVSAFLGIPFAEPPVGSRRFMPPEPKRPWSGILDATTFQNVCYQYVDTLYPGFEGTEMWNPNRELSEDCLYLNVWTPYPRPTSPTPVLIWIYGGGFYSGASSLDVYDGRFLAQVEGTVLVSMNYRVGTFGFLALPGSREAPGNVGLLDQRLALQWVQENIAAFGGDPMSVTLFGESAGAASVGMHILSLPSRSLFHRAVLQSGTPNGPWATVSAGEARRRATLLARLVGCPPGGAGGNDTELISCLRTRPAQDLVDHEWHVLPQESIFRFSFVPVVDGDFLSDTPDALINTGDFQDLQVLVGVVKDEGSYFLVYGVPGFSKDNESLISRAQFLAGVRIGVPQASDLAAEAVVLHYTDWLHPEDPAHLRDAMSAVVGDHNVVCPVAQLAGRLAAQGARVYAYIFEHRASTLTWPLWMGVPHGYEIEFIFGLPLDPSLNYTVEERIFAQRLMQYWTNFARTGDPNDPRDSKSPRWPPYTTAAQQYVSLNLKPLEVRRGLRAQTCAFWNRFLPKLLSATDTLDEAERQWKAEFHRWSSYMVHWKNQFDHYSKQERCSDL
T4 sequence (P81908 whole entry): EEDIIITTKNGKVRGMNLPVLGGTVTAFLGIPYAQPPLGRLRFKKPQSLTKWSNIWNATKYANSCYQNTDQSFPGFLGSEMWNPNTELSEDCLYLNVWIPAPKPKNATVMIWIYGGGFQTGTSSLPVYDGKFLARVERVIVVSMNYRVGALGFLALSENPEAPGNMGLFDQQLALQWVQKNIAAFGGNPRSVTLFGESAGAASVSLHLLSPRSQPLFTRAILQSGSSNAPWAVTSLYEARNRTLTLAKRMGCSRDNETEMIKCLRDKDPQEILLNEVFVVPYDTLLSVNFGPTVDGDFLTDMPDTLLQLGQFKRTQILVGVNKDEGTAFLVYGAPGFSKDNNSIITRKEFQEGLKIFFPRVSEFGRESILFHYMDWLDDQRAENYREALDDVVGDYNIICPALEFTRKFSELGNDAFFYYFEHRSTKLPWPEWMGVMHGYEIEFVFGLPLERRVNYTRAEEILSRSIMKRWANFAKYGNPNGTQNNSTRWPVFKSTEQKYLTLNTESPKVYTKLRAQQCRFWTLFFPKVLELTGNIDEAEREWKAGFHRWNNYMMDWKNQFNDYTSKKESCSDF

| Structure (SMILES) | IC50 (rat brain AChE) | % inhibition of DPPH activity [1] | IC50 (MAO-A) | IC50 (MAO-B) | SI (selectivity index for MAO-B) (MAO-B) | Neurotoxicity (animals that exhibit toxicity / animals tested) (mice; 0.5 h) | Neurotoxicity (animals that exhibit toxicity / animals tested) (mice; 1 h) | Neurotoxicity (animals that exhibit toxicity / animals tested) (mice; 2 h) | Neurotoxicity (animals that exhibit toxicity / animals tested) (mice; 4 h) | logP (physchem) | AChE: fold less active relative to compound 19 (rat brain AChE) | BuChE: fold less active relative to compound 17 (equine serum BuChE; diaryl analogues) | IC50 (equine serum BuChE) | Mode of BuChE inhibition (equine serum BuChE; Lineweaver–Burk plots, BuTI) | Reversibility of BuChE inhibition (equine serum BuChE; time-dependent inhibition, pre-incubation 0, 15, 30, 60 min) | AChE: fold less active than compound 14 (rat brain AChE; isomeric dichloro derivatives) | MAO-B: fold less active than compound 13 (MAO-B; isomeric dichloro derivatives) | AChE: fold more active relative to compound 7 (rat brain AChE; ratio of IC50 values) | MAO-B: fold reduction in the activity (hydroxyl vs dichloro diaryl analogue 19) (MAO-B; diaryl analogues) | MAO-B: fold less active relative to compound 7 (MAO-B; ratio of IC50 values) |
| --- | --- | --- | --- | --- | --- | --- | --- | --- | --- | --- | --- | --- | --- | --- | --- | --- | --- | --- | --- | --- |
| O=C(NN=Cc1ccc(Cl)cc1Cl)Nc1ncc([N+](=O)[O-])s1 [Compound 13, 1-(2,4-Dichlorobenzylidene)-4-(5-nitrothiazol-2-yl)semicarbazide] | 141 ± 3.11 µM | 39.39% | 10470 ± 13.9 µM | 3.49 ± 0.098 µM | 3001.15 | 0/4 | 0/4 | 0/4 | 0/4 | 2.5 |  |  |  |  |  |  |  |  |  |  |
| O=C(NN=C(c1ccccc1)c1ccccc1)Nc1ncc([N+](=O)[O-])s1 [Compound 16, 1-(Diphenylmethylene)-4-(5-nitrothiazol-2-yl)semicarbazide] | 4.86 ± 0.81 µM |  | < 100 µM and 89.3 µM | 28.3 ± 0.45 µM | 3.15 | 0/4 | 0/4 | 0/4 | 0/4 | 3.4 | ~3.35 fold | ~73 fold | 1.76 ± 0.035 µM |  |  |  |  |  |  |  |
| O=C(NN=C1C(=O)Nc2ccccc21)Nc1ncc([N+](=O)[O-])s1 [Compound 20, 4-(5-Nitrothiazol-2-yl)-1-(2-oxoindolin-3-ylidene)semicarbazide] | 54.8 ± 0.92 µM | 47.16% | 2250 ± 12.8 µM | 4.51 ± 0.086 µM | 499.22 | 0/4 | 0/4 | 0/4 | 0/4 | 1.1 |  |  |  |  |  |  |  |  |  |  |
| O=C(NN=C(c1ccccc1)c1ccc(Cl)cc1)Nc1ncc([N+](=O)[O-])s1 [Compound 17, 1-((4-Chlorophenyl)(phenyl)methylene)-4-(5-nitrothiazol-2-yl)semicarbazide] | 11.5 ± 0.35 µM |  | 4872 ± 5.81 µM | 28.52 ± 0.079 µM | 170.83 |  |  |  |  | 3.6 |  |  | 0.024 ± 0.002 µM | mixed-type | reversible |  |  |  |  |  |
| O=C(NN=Cc1cccc(Cl)c1Cl)Nc1ncc([N+](=O)[O-])s1 [Compound 12, 1-(2,3-Dichlorobenzylidene)-4-(5-nitrothiazol-2-yl)semicarbazide] | 101 ± 1.58 µM | 42.56% | 3369 ± 6.43 µM | 8.51 ± 0.132 µM | 395.79 | 0/4 | 0/4 | 0/4 | 0/4 | 2.6 |  |  |  |  |  | ~9.4 fold | ~2.4 fold |  |  |  |
| O=C(NN=C(c1ccccc1)c1ccc(O)cc1)Nc1ncc([N+](=O)[O-])s1 [Compound 18, 1-((4-Hydroxyphenyl)(phenyl)methylene)-4-(5-nitrothiazol-2-yl)semicarbazide] | 2.66 ± 0.084 µM | 10.77% | > 100 µM and 34300 µM | 158 ± 3.71 µM | 217.26 | 0/4 | 0/4 | 0/4 | 0/4 | 2.9 | ~1.83 fold |  |  |  |  |  |  | ~4.97 fold | ~107 fold | ~10.7 fold |
